In PubChem BioAssay (NCI):
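Tested at 5 concentrations; 48 h exposure; 96-well plates; endpoints linearly interpolated, else capped at highest concentration. GI50: concentration for 50% inhibition of growth. TGI: total growth inhibition.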

Assays:
Test in all cases: NCI tumour cell line growth inhibition, 48 h
SF-268 CNS = tested on: SF-268 CNS
COLO 205 colon = tested on: COLO 205 colon
SNB-19 CNS = tested on: SNB-19 CNS
HS 578T breast = tested on: HS 578T breast
SR leukemia = tested on: SR leukemia
NCI/ADR-RES ovarian = tested on: NCI/ADR-RES ovarian
HT29 colon = tested on: HT29 colon
NCI-H23 lung = tested on: NCI-H23 lung
HCT-116 colon = tested on: HCT-116 colon
CCRF-CEM leukemia = tested on: CCRF-CEM leukemia

Compound | GI50 (SF-268 CNS) [µM] | TGI (SF-268 CNS) [µM] | GI50 (COLO 205 colon) [µM] | TGI (COLO 205 colon) [µM] | GI50 (SNB-19 CNS) [µM] | TGI (SNB-19 CNS) [µM] | GI50 (HS 578T breast) [µM] | TGI (HS 578T breast) [µM] | GI50 (SR leukemia) [µM] | TGI (SR leukemia) [µM] | GI50 (NCI/ADR-RES ovarian) [µM] | TGI (NCI/ADR-RES ovarian) [µM] | GI50 (HT29 colon) [µM] | TGI (HT29 colon) [µM] | GI50 (NCI-H23 lung) [µM] | TGI (NCI-H23 lung) [µM] | TGI (HCT-116 colon) [µM] | TGI (CCRF-CEM leukemia) [µM] | GI50 (HCT-116 colon) [µM] | GI50 (CCRF-CEM leukemia) [µM]
N=C(N)c1ccc(-c2ccc(-c3cc(Cl)cc(Cl)c3)o2)nc1 | 1.82 | 3.46 | 2.01 | 3.78 | 1.63 | 3.1 | 1.87 | 3.93 | 1.78 | 4.8 | 1.93 | 3.81 | 1.76 | 3.69 | 1.96 | 3.93 |  |  |  | 
O=C(N/N=C(/c1ccccc1)C(F)(F)F)c1ccncc1 |  |  |  | > 100 |  | > 100 |  | > 100 |  | > 100 |  | > 100 |  | > 100 |  | > 100 | > 100 | > 100 |  | 
CCCc1[nH]c(SCCCCCCCCSc2nc(-c3ccc(F)cc3)c(CCC)[nH]2)nc1-c1ccc(F)cc1 |  | 16.9 |  | > 100 |  | > 100 |  |  |  | > 100 |  |  |  | > 100 |  | 30.6 | > 100 | > 100 |  | 
CC1SC(c2ccccc2)N(CCc2cccs2)C1=O (stereo unspecified) | 3.56 | 16.1 | 3.2 | 10.8 | 5.06 | 19.9 | 4.52 | 38.1 | 3.06 | 16.4 | 3.12 | 21.1 | 4.03 | 15.2 | 3.23 | 15.1 | 12.3 | 35.2 | 2.99 | 3.26
COc1ccc(/C(=C2/O[C@@H]([C@H]3COC(C)(C)O3)[C@H]3OC(C)(C)O[C@@H]23)c2cc(OC)c(OC)c(OC)c2)cc1O | 7.95 | 53.6 | 27.3 | 63.7 | 5.33 | > 100 | 6.97 | 67.9 | 6.1 | > 100 | 3.11 | 8.85 | 26.5 | 52 | 21.8 | 74.9 |  | > 100 |  | 5.45
CN(C)CC(=O)Nc1ccc(Cn2nnc3c2C(=O)c2nnn(Cc4ccc(NC(=O)CN(C)C)cc4)c2C3=O)cc1 |  |  | 0.087 | 0.253 |  |  | 0.337 | 2.06 |  |  | > 100 | > 100 |  |  | 0.192 | 0.488 | 0.275 | 0.747 | 0.0843 | 0.204
CCOC(=O)CSc1nc(N)c2c(-c3ccc(OC)c(OC)c3)c3c(nc2n1)CCCC3 |  | > 100 |  | > 100 |  | > 100 |  | 35.6 |  | > 100 |  | > 100 |  | > 100 |  | > 100 | > 100 | > 100 |  | 
Cc1cccc2nc3c(C(=O)NCCN(C)C)cccc3cc12 |  | 5.09 |  | 2.62 |  | 5.2 |  |  |  |  |  | 6.23 |  | 4.54 |  | 5.02 | 6.21 | 5.41 |  | 
CCN(CC)CC(C)Nc1ccc([N+](=O)[O-])c2sc3ccccc3c(=O)c12 (stereo unspecified) | 2.71 | 18.5 | 0.941 | 3.35 | 2.07 | 32.7 | 2.72 | 13.4 |  |  | 2.65 | > 58.5 | 2.58 | > 33.2 | 2.42 | 16.1 | 4.49 | 10.5 | 1.41 | 2.44
CNC(=O)OC(C)CN1c2ccccc2Sc2ccc(Cl)cc21 (stereo unspecified) |  | > 10 |  | > 10 |  | > 10 |  | > 10 |  | > 10 |  | > 10 |  | > 10 |  | > 10 | > 10 | > 10 |  | 
CCS(=O)(=O)Nc1ccc(Nc2c3ccccc3nc3ccccc23)c(OC)c1 |  | 12.5 |  | 7.28 |  | 6.41 |  |  |  |  |  | 20.6 |  | 6.56 |  | 3.79 | 6.94 |  |  | 
